Source: patent publication US11311520B2, “Substituted dihydroimidazopyridinediones as MKNK1 and MKNK2 inhibitors” (Bayer Pharma Aktiengesellschaft, priority 2017, dated 2022)

Biological target: human full-length MKNK1 (Homo sapiens (Human), UniProt Q9BUB5, T344D)
Experiment: MKNK1 kinase high ATP assay (TR-FRET)
Assay type: biochemical
Details: 2 mM ATP, 15 min preincubation with enzyme, GST-MKNK1 (T344D)
Method: MKNK1 Kinase High ATP Assay
MKNK1-inhibitory activity at high ATP of compounds of the present invention after their preincubation with MKNK1 was quantified employing the TR-FRET-based MKNK1 high ATP assay as described in the following paragraphs.
A recombinant fusion protein of Glutathione-S-Transferase (GST, N-terminally) and human full-length MKNK1 (amino acids 1-424 and T344D of accession number BAA 19885.1), expressed in insect cells using baculovirus expression system and purified via glutathione sepharose affinity chromatography, was purchased from Carna Biosciences (product no 02-145) and used as enzyme. As substrate for the kinase reaction the biotinylated peptide biotin-Ahx-IKKRKLTRRKSLKG (SEQ ID NO: 1) (C-terminus in amide form) was used, which can be purchased e.g. from the company Biosyntan (Berlin-Buch, Germany)
For the assay 50 nL of a 100 fold concentrated solution of the test compound in DMSO was pipetted into a black low volume 384 well microtiter plate (Greiner Bio-One, Frickenhausen, Germany), 2 μL of a solution of MKNK1 in aqueous assay buffer [50 mM HEPES pH 7.5, 5 mM MgCl2, 1.0 mM dithiothreitol, 0.005% (v/v) Nonidet-P40 (Sigma)] was added and the mixture was incubated for […] at 22° C. to allow pre-binding of the test compounds to the enzyme before the start of the kinase reaction. Then the kinase reaction was started by the addition of 3 μL of a solution of adenosine-tri-phosphate (ATP, 3.3 mM=>final conc. in the 5 μL assay volume is 2 mM) and substrate (0.1 μM=>final conc. in the 5 μL assay volume is 0.06 μM) in assay buffer and the resulting mixture was incubated for a reaction time of 30 min at 22° C. The concentration of MKNK1 was adjusted depending of the activity of the enzyme lot and was chosen appropriate to have the assay in the linear range, typical concentrations were in the range of 0.003 μg/mL. The reaction was stopped by the addition of 5 μL of a solution of TR-FRET detection reagents (5 nM streptavidine-XL665 [Cisbio Bioassays, Codolet, France] and 1 nM anti-ribosomal protein S6 (pSer236)-antibody from Invitrogen [#44921G] and 1 nM LANCE EU-W1024 labeled ProteinG [Perkin-Elmer, product no. AD0071]) in an aqueous EDTA-solution (100 mM EDTA, 0.1% (w/v) bovine serum albumin in 50 mM HEPES pH 7.5).
The resulting mixture was incubated for 1 h at 22° C. to allow the formation of complex between the phosphorylated biotinylated peptide and the detection reagents. Subsequently the amount of phosphorylated substrate was evaluated by measurement of the resonance energy transfer from the Eu-chelate to the streptavidine-XL. Therefore, the fluorescence emissions at 620 nm and 665 nm after excitation at 350 nm were measured in a TR-FRET reader, e.g. a Rubystar (BMG Labtechnologies, Offenburg, Germany) or a Viewlux (Perkin-Elmer). The ratio of the emissions at 665 nm and at […] was taken as the measure for the amount of phosphorylated substrate. The data were normalised (enzyme reaction without inhibitor=0% inhibition, all other assay components but no enzyme=100% inhibition).

Chain of human full-length MKNK1 (Q9BUB5 other isoform, or with tags, fused parts or gaps T344D): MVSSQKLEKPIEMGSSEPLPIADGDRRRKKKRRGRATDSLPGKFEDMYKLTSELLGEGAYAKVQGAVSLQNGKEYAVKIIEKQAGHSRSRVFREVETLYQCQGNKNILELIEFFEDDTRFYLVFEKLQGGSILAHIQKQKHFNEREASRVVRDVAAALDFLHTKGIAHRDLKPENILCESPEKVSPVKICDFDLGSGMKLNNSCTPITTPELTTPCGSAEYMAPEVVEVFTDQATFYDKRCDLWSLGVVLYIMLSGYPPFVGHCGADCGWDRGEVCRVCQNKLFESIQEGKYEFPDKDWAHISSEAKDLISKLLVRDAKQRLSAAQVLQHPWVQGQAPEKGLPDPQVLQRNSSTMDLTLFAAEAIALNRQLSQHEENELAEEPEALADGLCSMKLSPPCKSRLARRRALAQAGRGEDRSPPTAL

Row | Structure (SMILES) | IC50
1 | Cc1cc(Nc2ncnc3[nH]ncc23)c(=O)n2c1C(=O)NC2(C)C [Example 133, 3,3,8-Trimethyl-6-(1H-pyrazolo[3,4-d]pyrimidin-4-ylamino)-2,3-dihydroimidazo[1,5-a]pyridine-1,5-dione] | 0.0101 µM
2 | Cc1cc(Nc2ncnc3sc(C(=O)N4CC[C@@H](N(C)C)C4)cc23)c(=O)n2c1C(=O)NC21CCC1 [Example 156, 6′-[(6-{[(3R)-3-(Dimethylamino)pyrrolidin-1-yl]carbonyl}thieno[2,3-d]pyrimidin-4-yl)amino]-8′-methyl-2′H-spiro[cyclobutane-1,3′-imidazo[1,5-a]pyridine]-1′,5′-dione] | 0.0043 µM
3 | Cc1cc(Nc2ncnc3sc(C(=O)NCCN(C)C)cc23)c(=O)n2c1C(=O)NC21CCCC1 [Example 59, N-[2-(Dimethylamino)ethyl]-4-[(8′-methyl-1′,5′-dioxo-1′,5′-dihydro-2′H-spiro[cyclopentane-1,3′-imidazo[1,5-a]pyridin]-6′-yl)amino]thieno[2,3-d]pyrimidine-6-carboxamide] | 0.0027 µM
4 | Cc1cc(Nc2ncnc3c2CNC3)c(=O)n2c1C(=O)NC21CCCCC1 [Example 36, 6′-(6,7-Dihydro-5H-pyrrolo[3,4-d]pyrimidin-4-ylamino)-8′-methyl-2′H-spiro[cyclohexane-1,3′-imidazo[1,5-a]pyridine]-1′,5′-dione] | 0.0191 µM
5 | Cc1cc(Nc2ncnc3cc(F)cc(F)c23)c(=O)n2c1C(=O)NC21CCCCC1 [Example 114, 6′-[(5,7-Difluoroquinazolin-4-yl)amino]-8′-methyl-2′H-spiro[cyclohexane-1,3′-imidazo[1,5-a]pyridine]-1′,5′-dione] | 0.0086 µM
6 | Cc1cc(Nc2ncnc(N)n2)c(=O)n2c1C(=O)NC21CCCCC1 [Example 2, 6′-[(4-Amino-1,3,5-triazin-2-yl)amino]-8′-methyl-2′H-spiro[cyclohexane-1,3′-imidazo[1,5-a]pyridine]-1′,5′-dione] | 0.0064 µM
7 | Cc1cc(Nc2ncnc3c(Cl)cc(Cl)cc23)c(=O)n2c1C(=O)NC21CCCCC1 [Example 110, 6′-[(6,8-Dichloroquinazolin-4-yl)amino]-8′-methyl-2′H-spiro[cyclohexane-1,3′-imidazo[1,5-a]pyridine]-1′,5′-dione] | 5.58 µM
8 | Cc1cc(Nc2ncnc3sc(C(=O)NCCN(C)C)cc23)c(=O)n2c1C(=O)NC21CCC1 [Example 151, N-[2-(Dimethylamino)ethyl]-4-[(8′-methyl-1′,5′-dioxo-1′,5′-dihydro-2′H-spiro[cyclobutane-1,3′-imidazo[1,5-a]pyridin]-6′-yl)amino]thieno[2,3-d]pyrimidine-6-carboxamide] | 0.004 µM
9 | Cc1cc(Nc2ncnc3sc(C(=O)N4C[C@@H]5C[C@H]4CO5)cc23)c(=O)n2c1C(=O)NC21CCCCC1 [Example 66, 8′-Methyl-6′-({6-[(1S,4S)-2-oxa-5-azabicyclo[2.2.1]hept-5-ylcarbonyl]thieno[2,3-d]pyrimidin-4-yl}amino)-2′H-spiro[cyclohexane-1,3′-imidazo[1,5-a]pyridine]-1′,5′-dione] | 0.009 µM
10 | Cc1cc(Nc2ncnc3sc(C(=O)N4CC[C@@H](N(C)C)C4)cc23)c(=O)n2c1C(=O)NC21CCCC1 [Example 63, 6′-[(6-{[(3R)-3-(Dimethylamino)pyrrolidin-1-yl]carbonyl}thieno[2,3-d]pyrimidin-4-yl)amino]-8′-methyl-2′H-spiro[cyclopentane-1,3′-imidazo[1,5-a]pyridine]-1′,5′-dione] | 0.0038 µM
11 | Cc1cc(Nc2ncnc3cccc(F)c23)c(=O)n2c1C(=O)NC21CCCCC1 [Example 41, 6′-[(5-Fluoroquinazolin-4-yl)amino]-8′-methyl-2′H-spiro[cyclohexane-1,3′-imidazo[1,5-a]pyridine]-1′,5′-dione] | 0.014 µM
12 | Cc1cc(Nc2ncnc3c2CN(C(=O)OC(C)(C)C)C3)c(=O)n2c1C(=O)NC21CCCCC1 [Example 35, tert-Butyl 4-[(8′-methyl-1′,5′-dioxo-1′,5′-dihydro-2′H-spiro[cyclohexane-1,3′-imidazo[1,5-a]pyridin]-6′-yl)amino]-5,7-dihydro-6H-pyrrolo[3,4-d]pyrimidine-6-carboxylate] | 0.0041 µM
13 | Cc1cc(Nc2ncnc3c2CNC3)c(=O)n2c1C(=O)NC21CCCC1 [Example 126, 6′-(6,7-Dihydro-5H-pyrrolo[3,4-d]pyrimidin-4-ylamino)-8′-methyl-2′H-spiro[cyclopentane-1,3′-imidazo[1,5-a]pyridine]-1′,5′-dione] | 0.0203 µM
14 | Cc1cc(Nc2ncnc3cc(F)ccc23)c(=O)n2c1C(=O)NC21CCCCC1 [Example 112, 6′-[(7-Fluoroquinazolin-4-yl)amino]-8′-methyl-2′H-spiro[cyclohexane-1,3′-imidazo[1,5-a]pyridine]-1′,5′-dione] | 0.0253 µM
15 | Cc1cc(Nc2ncnc3sc(C(=O)O)cc23)c(=O)n2c1C(=O)NC2(C)C [Example 136, 4-[(3,3,8-Trimethyl-1,5-dioxo-1,2,3,5-tetrahydroimidazo[1,5-a]pyridin-6-yl)amino]thieno[2,3-d]pyrimidine-6-carboxylic acid] | 0.122 µM
16 | Cc1cc(Nc2ncnc3[nH]ccc23)c(=O)n2c1C(=O)NC21CCCC1 [Example 55, 8′-Methyl-6′-(7H-pyrrolo[2,3-d]pyrimidin-4-ylamino)-2′H-spiro[cyclopentane-1,3′-imidazo[1,5-a]pyridine]-1′,5′-dione] | 0.0003 µM
17 | Cc1cc(Nc2ncnc3cccc(C)c23)c(=O)n2c1C(=O)NC21CSC1 [Example 174, 8-methyl-6-[(5-methylquinazolin-4-yl)amino]-2H-spiro[imidazo[1,5-a]pyridine-3,3′-thietane]-1,5-dione] | 0.0128 µM
18 | Cc1cc(Nc2ncnc3cccc(C)c23)c(=O)n2c1C(=O)NC21CCCC1 [Example 183, 8′-methyl-6′-[(5-methylquinazolin-4-yl)amino]-2′H-spiro[cyclopentane-1,3′-imidazo[1,5-a]pyridine]-1′,5′-dione] | 0.013 µM
19 | Cc1cc(Nc2ncnc3sc(C(=O)N4CC(C#N)C4)cc23)c(=O)n2c1C(=O)NC21CCC(F)(F)CC1 [Example 85, 1-({4-[(4,4-Difluoro-8′-methyl-1′,5′-dioxo-1′,5′-dihydro-2′H-spiro[cyclohexane-1,3′-imidazo[1,5-a]pyridin]-6′-yl)amino]thieno[2,3-d]pyrimidin-6-yl}carbonyl)azetidine-3-carbonitrile] | 0.0252 µM
20 | Cc1cc(Nc2ncnc3ccccc23)c(=O)n2c1C(=O)NC21CS(=O)(=O)C1 [Example 182, 8-methyl-6-(quinazolin-4-ylamino)-2H-spiro[imidazo[1,5-a]pyridine-3,3′-thietane]-1,5-dione 1′,1′-dioxide] | 0.261 µM
21 | Cc1cc(Nc2ncnc3sc(C(=O)N4CC(NC(=O)OC(C)(C)C)C4)cc23)c(=O)n2c1C(=O)NC2(C)C [Example 139, tert-Butyl [1-({4-[(3,3,8-trimethyl-1,5-dioxo-1,2,3,5-tetrahydroimidazo[1,5-a]pyridin-6-yl)amino]thieno[2,3-d]pyrimidin-6-yl}carbonyl)azetidin-3-yl]carbamate] | 0.0241 µM
22 | Cc1cc(Nc2ncnc3[nH]ncc23)c(=O)n2c1C(=O)NC21CCC(F)(F)CC1 [Example 105, 4,4-Difluoro-8′-methyl-6′-(1H-pyrazolo[3,4-d]pyrimidin-4-ylamino)-2′H-spiro[cyclohexane-1,3′-imidazo[1,5-a]pyridine]-1′,5′-dione] | 0.0083 µM
23 | CCOC(=O)Cn1cnc2c(Nc3cc(C)c4n(c3=O)C3(CCCCC3)NC4=O)ncnc21 [Example 45, Ethyl {6-[(8′-methyl-1′,5′-dioxo-1′,5′-dihydro-2′H-spiro[cyclohexane-1,3′-imidazo[1,5-a]pyridin]-6′-yl)amino]-9H-purin-9-yl}acetate] | 0.603 µM
24 | Cc1cc(Nc2ncnc(N)n2)c(=O)n2c1C(=O)NC21CCC(O)(C(F)(F)F)CC1 (stereo not drawn) [Example 127, 6′-[(4-Amino-1,3,5-triazin-2-yl)amino]-4-hydroxy-8′-methyl-4-(trifluoromethyl)-2′H-spiro[cyclohexane-1,3′-imidazo[1,5-a]pyridine]-1′,5′-dione] | 0.0712 µM
